In ChEMBL document CHEMBL1201862, “PubChem BioAssay data set” (2004):
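Tested at 5 concentrations; 48 h exposure; 96-well plates; endpoints linearly interpolated, else capped at highest concentration. At the GI50, growth is halved.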 Activity calls are given as the source filed them. No stated cut-off is given here; in the data, active = GI50 up to about 1.1 µM and inactive = higher.

Legend:
Assay in all cases: growth of human tumour cells (NCI), 48 h
LXFL 529 = tested on: LXFL 529
DMS-114 = tested on: DMS-114
KM-20L2 = tested on: KM-20L2
RXF 631 = tested on: RXF 631
M19-MEL = tested on: M19-MEL
XF498 = tested on: XF498
HOP-18 = tested on: HOP-18
SNB-78 = tested on: SNB-78
Hs-578T = tested on: Hs-578T

Measured: GI50

O=c1oc2c3ccc4ccccc4c3n(CCCN3CCCCC3)c2c2ccccc12
inactive: LXFL 529 62.7 µM | DMS-114 > 100 µM | KM-20L2 19.5 µM | RXF 631 46.7 µM | M19-MEL 63.2 µM | XF498 64.6 µM | HOP-18 > 100 µM

Cc1ccccc1/C=C/C(=O)c1ccccc1
inactive: SNB-78 19.3 µM | LXFL 529 21.6 µM | DMS-114 20.9 µM | KM-20L2 17.7 µM | RXF 631 19.4 µM | M19-MEL 25 µM | XF498 17.1 µM

O=C(CC1C(=O)Nc2ccccc2S1(=O)=O)Nc1ccc(Cl)cc1 (configuration not stated)
inactive: SNB-78 21.7 µM | LXFL 529 22.9 µM | DMS-114 13.4 µM | KM-20L2 > 100 µM | RXF 631 27.6 µM | M19-MEL 24 µM | XF498 11.7 µM

CCOC(=O)C1([Se]c2ccccc2)CCCC1=O (configuration not stated)
inactive: SNB-78 24 µM | LXFL 529 14.8 µM | DMS-114 3.83 µM | KM-20L2 36.6 µM | RXF 631 66.5 µM | M19-MEL 19.7 µM | XF498 16.1 µM | HOP-18 20.1 µM

COC1CC(O)C(OC(=O)c2ccccc2)C(C)O1 (configuration not stated)
inactive: SNB-78 > 100 µM | KM-20L2 > 100 µM | RXF 631 > 100 µM | M19-MEL > 100 µM | XF498 > 100 µM | HOP-18 > 100 µM

CN1CCc2cc3c4cc2C1Cc1ccc(cc1)Oc1cc(ccc1O)CC1c2c(cc(O)c(c2O4)O3)CCN1C (configuration not stated)
inactive: SNB-78 5.66 µM | LXFL 529 2.53 µM | DMS-114 2.05 µM | KM-20L2 2.9 µM | RXF 631 1.94 µM | M19-MEL 1.78 µM | XF498 1.69 µM | HOP-18 3.52 µM

CCc1c(OC(C)=O)c2c(NC3OCC(OC(C)=O)C(OC(C)=O)C3OC(C)=O)nc(SC)nc2oc1=O (configuration not stated)
inactive: SNB-78 > 100 µM | LXFL 529 > 100 µM | KM-20L2 > 100 µM | RXF 631 > 100 µM | M19-MEL > 100 µM | XF498 > 100 µM | HOP-18 > 100 µM

O=C1CC(c2n[nH]c3ccccc23)C(=O)N1c1ccccc1 (configuration not stated)
inactive: SNB-78 > 100 µM | LXFL 529 > 95.9 µM | DMS-114 > 100 µM | Hs-578T > 100 µM | KM-20L2 > 100 µM | RXF 631 > 100 µM | M19-MEL > 100 µM | XF498 > 100 µM | HOP-18 > 100 µM

C=C1C(=O)C23CC1CCC2C12CO[C@@H]4OCC(C)(CC[C@@H]1OC3=O)C42 (some centres not stated)
inactive: SNB-78 2.3 µM | LXFL 529 2.78 µM | DMS-114 1.9 µM | KM-20L2 5.38 µM | RXF 631 12.1 µM | M19-MEL 6.53 µM | XF498 1.92 µM | HOP-18 6.41 µM
